According to PubChem BioAssay AID1963441 (Molecular Pharmacology Branch, DTP, NCI, 2024):
One block for each molecule: values may come before it.

System: NCI-H1876 complex spheroid growth, % test/control
Experiment: Anticancer human tumor NCI-H1876 cell line growth inhibition [Asc];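 also: compound exposure lasted 7 days starting three days after seeding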;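 as to viability, T/C: 100% = DMSO vehicle control wells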
Details: for IC50: curve of first compound; for viability, T/C: stronger effect = lower value
Summary of the method: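 Concentration series start at each agent's clinical Cmax, or at 10 microM when none is established, and drop in half-log steps; agents are applied alone or together to complex spheroids built with HUVEC and hMSC.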

[1] = second compound 0.00949 µM, first compound 0.0316 µM
[2] = second compound 0.00949 µM, first compound 0.1 µM
[3] = second compound 0.03 µM, first compound 0.0316 µM
[4] = second compound 0.03 µM, first compound 0.1 µM
[5] = second compound 0.0949 µM, first compound 0.0316 µM
[6] = second compound 0.0949 µM, first compound 0.1 µM
[7] = second compound 0.3 µM, first compound 0.0316 µM
[8] = second compound 0.3 µM, first compound 0.1 µM
[9] = second compound 0.949 µM, first compound 0.0316 µM
[10] = second compound 0.949 µM, first compound 0.1 µM
[11] = second compound 3 µM, first compound 0.0316 µM
[12] = second compound 3 µM, first compound 0.1 µM

IC50 (second compound 0.00949 µM): > 10 µM
IC50 (second compound 0.03 µM): > 10 µM
IC50 (second compound 0.0949 µM): > 10 µM
IC50 (second compound 0.3 µM): > 10 µM
IC50 (second compound 0.949 µM): > 10 µM
IC50 (second compound 3 µM): > 10 µM
Structure (SMILES): O=C(c1cc(Cc2n[nH]c(=O)c3ccccc23)ccc1F)N1CCN(C(=O)C2CC2)CC1 + CCN1C(C(=O)NC23CCC(C(=O)O)(CC2)CC3)C(c2cccc(Cl)c2F)C2(C(=O)Nc3cc(Cl)ccc32)C12CCCCC2
viability, T/C [1]: 99.3%
viability, T/C [2]: 94.5%
viability, T/C (second compound 0.00949 µM, first compound 0.316 µM): 118%
viability, T/C (second compound 0.00949 µM, first compound 1 µM): 102%
viability, T/C (second compound 0.00949 µM, first compound 3.16 µM): 100%
viability, T/C (second compound 0.00949 µM, first compound 10 µM): 80.2%
viability, T/C [3]: 104%
viability, T/C [4]: 100%
viability, T/C (second compound 0.03 µM, first compound 0.316 µM): 97.4%
viability, T/C (second compound 0.03 µM, first compound 1 µM): 108%
viability, T/C (second compound 0.03 µM, first compound 3.16 µM): 116%
viability, T/C (second compound 0.03 µM, first compound 10 µM): 82%
viability, T/C [5]: 101%
viability, T/C [6]: 106%
viability, T/C (second compound 0.0949 µM, first compound 0.316 µM): 104%
viability, T/C (second compound 0.0949 µM, first compound 1 µM): 102%
viability, T/C (second compound 0.0949 µM, first compound 3.16 µM): 112%
viability, T/C (second compound 0.0949 µM, first compound 10 µM): 85.5%
viability, T/C [7]: 106%
viability, T/C [8]: 116%
viability, T/C (second compound 0.3 µM, first compound 0.316 µM): 108%
viability, T/C (second compound 0.3 µM, first compound 1 µM): 102%
viability, T/C (second compound 0.3 µM, first compound 3.16 µM): 112%
viability, T/C (second compound 0.3 µM, first compound 10 µM): 97%
viability, T/C [9]: 122%
viability, T/C [10]: 114%
viability, T/C (second compound 0.949 µM, first compound 0.316 µM): 110%
viability, T/C (second compound 0.949 µM, first compound 1 µM): 123%
viability, T/C (second compound 0.949 µM, first compound 3.16 µM): 117%
viability, T/C (second compound 0.949 µM, first compound 10 µM): 83.2%
viability, T/C [11]: 102%
viability, T/C [12]: 108%
viability, T/C (second compound 3 µM, first compound 0.316 µM): 101%
viability, T/C (second compound 3 µM, first compound 1 µM): 106%
viability, T/C (second compound 3 µM, first compound 3.16 µM): 98%
viability, T/C (second compound 3 µM, first compound 10 µM): 76.9%

IC50 (second compound 0.00949 µM): > 0.1 µM
IC50 (second compound 0.03 µM): > 0.1 µM
IC50 (second compound 0.0949 µM): > 0.1 µM
IC50 (second compound 0.3 µM): > 0.1 µM
IC50 (second compound 0.949 µM): > 0.1 µM
IC50 (second compound 3 µM): > 0.1 µM
Structure (SMILES): NC1CCC(NC2CC2c2ccccc2)CC1 (centres undefined) + CCN1C(C(=O)NC23CCC(C(=O)O)(CC2)CC3)C(c2cccc(Cl)c2F)C2(C(=O)Nc3cc(Cl)ccc32)C12CCCCC2
viability, T/C (second compound 0.00949 µM, first compound 0.000316 µM): 103%
viability, T/C (second compound 0.00949 µM, first compound 0.001 µM): 105%
viability, T/C (second compound 0.00949 µM, first compound 0.00316 µM): 105%
viability, T/C (second compound 0.00949 µM, first compound 0.01 µM): 113%
viability, T/C [1]: 108%
viability, T/C [2]: 119%
viability, T/C (second compound 0.03 µM, first compound 0.000316 µM): 112%
viability, T/C (second compound 0.03 µM, first compound 0.001 µM): 107%
viability, T/C (second compound 0.03 µM, first compound 0.00316 µM): 110%
viability, T/C (second compound 0.03 µM, first compound 0.01 µM): 117%
viability, T/C [3]: 120%
viability, T/C [4]: 110%
viability, T/C (second compound 0.0949 µM, first compound 0.000316 µM): 106%
viability, T/C (second compound 0.0949 µM, first compound 0.001 µM): 117%
viability, T/C (second compound 0.0949 µM, first compound 0.00316 µM): 113%
viability, T/C (second compound 0.0949 µM, first compound 0.01 µM): 113%
viability, T/C [5]: 117%
viability, T/C [6]: 112%
viability, T/C (second compound 0.3 µM, first compound 0.000316 µM): 117%
viability, T/C (second compound 0.3 µM, first compound 0.001 µM): 116%
viability, T/C (second compound 0.3 µM, first compound 0.00316 µM): 123%
viability, T/C (second compound 0.3 µM, first compound 0.01 µM): 124%
viability, T/C [7]: 118%
viability, T/C [8]: 108%
viability, T/C (second compound 0.949 µM, first compound 0.000316 µM): 118%
viability, T/C (second compound 0.949 µM, first compound 0.001 µM): 121%
viability, T/C (second compound 0.949 µM, first compound 0.00316 µM): 134%
viability, T/C (second compound 0.949 µM, first compound 0.01 µM): 113%
viability, T/C [9]: 133%
viability, T/C [10]: 116%
viability, T/C (second compound 3 µM, first compound 0.000316 µM): 122%
viability, T/C (second compound 3 µM, first compound 0.001 µM): 112%
viability, T/C (second compound 3 µM, first compound 0.00316 µM): 111%
viability, T/C (second compound 3 µM, first compound 0.01 µM): 126%
viability, T/C [11]: 125%
viability, T/C [12]: 111%
